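In this assay, cells in 96-well plates receive the compound at five concentrations for 48 hours. Endpoints are linearly interpolated between the surrounding concentrations. Abbreviation: GI50, concentration required for 50% inhibition of growth. TGI is the concentration that stops growth completely.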
What was measured:
Assay in all cases: DTP human tumour cell line panel, 48 h
LOX IMVI melanoma = tested on: LOX IMVI melanoma
SW-620 colon = tested on: SW-620 colon
M14 melanoma = tested on: M14 melanoma
SK-MEL-2 melanoma = tested on: SK-MEL-2 melanoma
UACC-62 melanoma = tested on: UACC-62 melanoma
EKVX NSCLC = tested on: EKVX NSCLC
MOLT-4 leukemia = tested on: MOLT-4 leukemia
NCI-H460 lung = tested on: NCI-H460 lung
OVCAR-4 ovarian = tested on: OVCAR-4 ovarian
HT29 colon = tested on: HT29 colon
SR leukemia = tested on: SR leukemia

| Compound | TGI (LOX IMVI melanoma) | TGI (SW-620 colon) | TGI (M14 melanoma) | TGI (SK-MEL-2 melanoma) | TGI (UACC-62 melanoma) | TGI (EKVX NSCLC) | TGI (MOLT-4 leukemia) | TGI (NCI-H460 lung) | TGI (OVCAR-4 ovarian) | TGI (HT29 colon) | TGI (SR leukemia) | GI50 (HT29 colon) | GI50 (M14 melanoma) | GI50 (SK-MEL-2 melanoma) | GI50 (UACC-62 melanoma) | GI50 (EKVX NSCLC) | GI50 (MOLT-4 leukemia) | GI50 (NCI-H460 lung) | GI50 (OVCAR-4 ovarian) | GI50 (SR leukemia) |
| --- | --- | --- | --- | --- | --- | --- | --- | --- | --- | --- | --- | --- | --- | --- | --- | --- | --- | --- | --- | --- |
| C#C[C@]1(O)[C@@H](CO)O[C@@H](n2ccc(N)nc2=O)[C@@H]1O | 0.0945 µM | 3.92 µM | 3.06 µM | 0.617 µM | 0.4 µM | > 19.9 µM | > 32 µM | 0.508 µM | 5.33 µM |  |  |  |  |  |  |  |  |  |  |  |
| CN1C(=O)CN2C(Cl)(Cl)C2(c2ccccc2)c2cc(Cl)ccc21 (stereo unspecified) | > 100 µM | > 100 µM | > 100 µM | > 100 µM | > 100 µM | > 100 µM | 91.9 µM | > 100 µM | > 100 µM | > 100 µM |  |  |  |  |  |  |  |  |  |  |
| Cc1cc(C)c(NC(=O)/C=C/c2ccccc2)c(C)c1 |  | > 100 µM | > 100 µM | > 100 µM | 93.8 µM | > 100 µM | > 100 µM | > 100 µM | > 100 µM | > 100 µM | > 100 µM |  |  |  |  |  |  |  |  |  |
| CC(=O)N=c1ccc2nc(N)nn(O)c-2c1 | > 100 µM | > 100 µM | > 100 µM | > 100 µM | > 100 µM | > 100 µM | > 100 µM | > 100 µM | > 100 µM | > 100 µM | > 100 µM |  |  |  |  |  |  |  |  |  |
| COc1cc2c(cc1O)Cc1c-2[n+](C)cc2cc(OC)c(OC)cc12 | > 100 µM | > 100 µM | > 100 µM | > 100 µM | > 77.9 µM | > 100 µM | > 39.4 µM | > 100 µM | > 100 µM | > 100 µM | > 22.1 µM |  |  |  |  |  |  |  |  |  |
| COc1cc(/C=C/C(=O)c2ccc(F)cc2)ccc1OCCCCCOc1cc2c(cc1OC)C(=O)N1CCCC1C=N2 (stereo unspecified) |  |  | 0.266 µM | 1.51 µM | 0.222 µM | 0.601 µM | 0.0418 µM | 0.0179 µM | > 100 µM | 1.48 µM | < 0.0113 µM | < 0.016 µM | 0.0491 µM | 0.062 µM | 0.0582 µM | 0.151 µM | < 0.01 µM | < 0.01 µM | 0.0265 µM | < 0.01 µM |
| NC(Cc1ccccc1)c1nn[nH]n1 (stereo unspecified) | > 100 µM | > 100 µM | > 100 µM | > 100 µM | > 100 µM | > 100 µM |  | > 100 µM | > 100 µM | > 100 µM | > 100 µM |  |  |  |  |  |  |  |  |  |
| O=[N+]([O-])c1ccc(CN=C2NNS(=O)(=O)c3ccccc32)cc1 | > 100 µM | > 100 µM | > 100 µM | > 100 µM | > 100 µM | > 100 µM | > 100 µM | > 100 µM | > 100 µM | > 100 µM | 99.7 µM |  |  |  |  |  |  |  |  |  |
| C/C(=N\O)C1CC2C=C(C#N)C1N(Cc1ccccc1)C2 (stereo unspecified) | > 100 µM | > 100 µM | > 100 µM |  | > 100 µM | > 100 µM | > 100 µM | > 100 µM |  | > 100 µM | > 100 µM |  |  |  |  |  |  |  |  |  |
| CC(C)OC(=O)NNc1cccc(Cl)c1 | > 100 µM | > 100 µM | > 100 µM | > 100 µM | > 100 µM | > 100 µM | > 100 µM | > 100 µM |  | > 100 µM | > 100 µM |  |  |  |  |  |  |  |  |  |
| C=CC(=O)NCNC(=O)C=C | > 100 µM | > 100 µM | > 100 µM | > 100 µM | > 100 µM | > 100 µM | > 100 µM | > 100 µM | > 100 µM | > 100 µM | > 100 µM |  |  |  |  |  |  |  |  |  |
| OCC1OC(n2cnc3c(SCc4ccccc4)ncnc32)C(O)C1O (stereo unspecified) | > 100 µM | > 100 µM | > 100 µM | > 100 µM | > 100 µM | > 100 µM | > 39.8 µM | > 100 µM | > 100 µM | > 100 µM | > 100 µM |  |  |  |  |  |  |  |  |  |
| [N-]=[N+]=CC(=O)OCC1NC(=O)C(COC(=O)C=[N+]=[N-])NC1=O (stereo unspecified) | > 100 µM | > 100 µM | > 100 µM | > 100 µM | > 100 µM | > 100 µM | > 100 µM | > 100 µM | > 100 µM | > 100 µM | > 100 µM |  |  |  |  |  |  |  |  |  |
| CCP(=O)(CC)C(Cl)(Cl)C(O)C(Cl)(Cl)Cl (stereo unspecified) | > 100 µM | > 100 µM | > 100 µM | > 100 µM |  |  | > 100 µM | > 100 µM | > 100 µM | > 100 µM | > 100 µM |  |  |  |  |  |  |  |  |  |
